# Assay results as given in patent US20050112573A1, “Method of detecting toxic substance” (priority 2001, published 2005).
# Tested on: yeast genes (level of expressed mRNA)
# Assay: DNA chip analysis of expressed mRNA of yeast genes after 2 h culture with a toxic chemical substance
# Assay type: cell-based, Saccharomyces cerevisiae S288C
# Protocol: Yeast (Saccharomyces cerevtisiae S288C (α SUC2mal mel gap2 CUP1)) were cultured at 25° C. on YPD medium (yeast extract 1%, polypepton 2%, glucose 2%). One of toxic chemical substances was added to the cell at logarithmic growth phase, and the cell was further cultured for two hours. Cell was cultured without any chemical substance in the same condition, and was used as control. Concentrations of the chemical substances were defined to inhibit the growth of the yeast but not lead to death.
# After the completion of cultivation, the culture was centrifuged to collect the cells. To the cells, sodium acetate buffer (50 mM sodium acetate, 10 mM EDTA, 1% SDS) was added, and the mixture was shaken at 65° C. for five minutes, followed by returning to room temperature, and obtaining the supernatant, which procedure was repeated two times. To the supernatant, ½ amount of a solution of phenol/chloroform was added, and the mixture was centrifuged to give a supernatant, which was added with an equal amount of chloroform, and the mixture was centrifuged to give a supernatant. To the supernatant, an equal amount of isopropanol containing 0.3 M sodium acetate was added, and the mixture was allowed to stand at room temperature for 30 minutes, after which the mixture was centrifuged to give a sediment of the whole RNAs. Seventy % ethanol was added to the sediment, and the mixture was again centrifuged to give a sediment, which was then dried and dissolved in water. mRNA was isolated from the whole RNAs as followings. In view of the fact that a poly A chain is attached to the 3′ terminus of mRNA, a polynucleotide having a poly T structure which was immobilized on the surface of latex beads was used to trap the mRNA, and then the mRNA was washed and eluted with spine column (Oligotex-dT30<Super>mRNA Purification Kit, Takara). Reverse transcription of the mRNA was conducted with a reverse transcriptase (Super Script II Reverse Transcriptase; catalogue No. 18064-014, GibcoBRL) using fluorescence-labeled nucleotides to give cDNAs that were introduced with Cy3-dUTP or Cy5-dUTP during the reverse transcription.
# The labeled cDNAs were dissolved in TE buffer (10 mM Tris-HCl/1 mM EDTA, pH8.0), and the solution was dropped on the DNA chip containing the whole genes of yeast (DNA Chip Research Inc. Japan) so that the cDNAs were hybridized on the DNA chip at 65° C. for over 12 hours. The fluoresces intensity of the DNA chip was read with a scanner, and the ratio relative to the fluorescence intensity resulting from the absence of chemical substance was estimated as the following, which is shown in Tables 1 to 9: [formula]
# In the Tables, “Intensity” indicated in the rightmost column is a value of the level of expressed mRNA of each gene in control cells as divided by the average level of the expressions of the whole genes.
compound,measurement,setting,value
"N#Cc1c(Cl)c(Cl)c(Cl)c(C#N)c1Cl [(9), 2,4,5,6-tetrachloro-1,3-benzenedicarbonitrile]",The level of expressed mRNA in the presence of chemical substance/The level of expressed mRNA in the absence of chemical substance,yeast gene YKL039W,1.3
same,The level of expressed mRNA in the presence of chemical substance/The level of expressed mRNA in the absence of chemical substance,yeast gene YKL041W,1.6
same,The level of expressed mRNA in the presence of chemical substance/The level of expressed mRNA in the absence of chemical substance,yeast gene YKL139W,1.6
same,The level of expressed mRNA in the presence of chemical substance/The level of expressed mRNA in the absence of chemical substance,yeast gene YKL165C,0.4
same,The level of expressed mRNA in the presence of chemical substance/The level of expressed mRNA in the absence of chemical substance,yeast gene YKL193C,1.0
same,The level of expressed mRNA in the presence of chemical substance/The level of expressed mRNA in the absence of chemical substance,yeast gene YKR014C,2.4
same,The level of expressed mRNA in the presence of chemical substance/The level of expressed mRNA in the absence of chemical substance,yeast gene YLR093C,1.5
same,The level of expressed mRNA in the presence of chemical substance/The level of expressed mRNA in the absence of chemical substance,yeast gene YLR120C,1.8
same,The level of expressed mRNA in the presence of chemical substance/The level of expressed mRNA in the absence of chemical substance,yeast gene YLR136C,0.9
same,The level of expressed mRNA in the presence of chemical substance/The level of expressed mRNA in the absence of chemical substance,yeast gene YLR178C,4.3
same,The level of expressed mRNA in the presence of chemical substance/The level of expressed mRNA in the absence of chemical substance,yeast gene YLR250W,2.7
same,The level of expressed mRNA in the presence of chemical substance/The level of expressed mRNA in the absence of chemical substance,yeast gene YLR327C,3.0
same,The level of expressed mRNA in the presence of chemical substance/The level of expressed mRNA in the absence of chemical substance,yeast gene YLR356W,2.3
same,The level of expressed mRNA in the presence of chemical substance/The level of expressed mRNA in the absence of chemical substance,yeast gene YLR362W,3.5
same,The level of expressed mRNA in the presence of chemical substance/The level of expressed mRNA in the absence of chemical substance,yeast gene YLR391W,0.4
same,The level of expressed mRNA in the presence of chemical substance/The level of expressed mRNA in the absence of chemical substance,yeast gene YLR429W,0.9
same,The level of expressed mRNA in the presence of chemical substance/The level of expressed mRNA in the absence of chemical substance,yeast gene YMR004W,94.2
same,The level of expressed mRNA in the presence of chemical substance/The level of expressed mRNA in the absence of chemical substance,yeast gene YMR104C,0.6
same,The level of expressed mRNA in the presence of chemical substance/The level of expressed mRNA in the absence of chemical substance,yeast gene YMR219W,2.3
same,The level of expressed mRNA in the presence of chemical substance/The level of expressed mRNA in the absence of chemical substance,yeast gene YMR226C,2.6
same,The level of expressed mRNA in the presence of chemical substance/The level of expressed mRNA in the absence of chemical substance,yeast gene YMR275C,2.4
same,The level of expressed mRNA in the presence of chemical substance/The level of expressed mRNA in the absence of chemical substance,yeast gene YMR276W,1.8
same,The level of expressed mRNA in the presence of chemical substance/The level of expressed mRNA in the absence of chemical substance,yeast gene YMR314W,5.9
same,The level of expressed mRNA in the presence of chemical substance/The level of expressed mRNA in the absence of chemical substance,yeast gene YNL006W,4.0
same,The level of expressed mRNA in the presence of chemical substance/The level of expressed mRNA in the absence of chemical substance,yeast gene YNL007C,3.0
same,The level of expressed mRNA in the presence of chemical substance/The level of expressed mRNA in the absence of chemical substance,yeast gene YNL093W,1.7
same,The level of expressed mRNA in the presence of chemical substance/The level of expressed mRNA in the absence of chemical substance,yeast gene YNL333W,2.3
same,The level of expressed mRNA in the presence of chemical substance/The level of expressed mRNA in the absence of chemical substance,yeast gene YNR010W,1.7
same,The level of expressed mRNA in the presence of chemical substance/The level of expressed mRNA in the absence of chemical substance,yeast gene YNR069C,5.5
same,The level of expressed mRNA in the presence of chemical substance/The level of expressed mRNA in the absence of chemical substance,yeast gene YOL013C,0.8
same,The level of expressed mRNA in the presence of chemical substance/The level of expressed mRNA in the absence of chemical substance,yeast gene YOL164W,4.9
same,The level of expressed mRNA in the presence of chemical substance/The level of expressed mRNA in the absence of chemical substance,yeast gene YOR036W,1.2
same,The level of expressed mRNA in the presence of chemical substance/The level of expressed mRNA in the absence of chemical substance,yeast gene YOR117W,3.5
same,The level of expressed mRNA in the presence of chemical substance/The level of expressed mRNA in the absence of chemical substance,yeast gene YOR124C,2.0
same,The level of expressed mRNA in the presence of chemical substance/The level of expressed mRNA in the absence of chemical substance,yeast gene YOR132W,2.8
same,The level of expressed mRNA in the presence of chemical substance/The level of expressed mRNA in the absence of chemical substance,yeast gene YOR157C,5.7
same,The level of expressed mRNA in the presence of chemical substance/The level of expressed mRNA in the absence of chemical substance,yeast gene YOR181W,0.6
same,The level of expressed mRNA in the presence of chemical substance/The level of expressed mRNA in the absence of chemical substance,yeast gene YOR185C,1.9
same,The level of expressed mRNA in the presence of chemical substance/The level of expressed mRNA in the absence of chemical substance,yeast gene YOR198C,2.4
same,The level of expressed mRNA in the presence of chemical substance/The level of expressed mRNA in the absence of chemical substance,yeast gene YOR259C,2.7
same,The level of expressed mRNA in the presence of chemical substance/The level of expressed mRNA in the absence of chemical substance,yeast gene YOR261C,5.5
same,The level of expressed mRNA in the presence of chemical substance/The level of expressed mRNA in the absence of chemical substance,yeast gene YOR288C,0.9
same,The level of expressed mRNA in the presence of chemical substance/The level of expressed mRNA in the absence of chemical substance,yeast gene YOR355W,0.1
same,The level of expressed mRNA in the presence of chemical substance/The level of expressed mRNA in the absence of chemical substance,yeast gene YOR383C,1.2
same,The level of expressed mRNA in the presence of chemical substance/The level of expressed mRNA in the absence of chemical substance,yeast gene YPL089C,0.4
same,The level of expressed mRNA in the presence of chemical substance/The level of expressed mRNA in the absence of chemical substance,yeast gene YPL109C,1.2
same,The level of expressed mRNA in the presence of chemical substance/The level of expressed mRNA in the absence of chemical substance,yeast gene YPL149W,5.6
same,The level of expressed mRNA in the presence of chemical substance/The level of expressed mRNA in the absence of chemical substance,yeast gene YPL154C,2.8
same,The level of expressed mRNA in the presence of chemical substance/The level of expressed mRNA in the absence of chemical substance,yeast gene YPR103W,5.5
same,The level of expressed mRNA in the presence of chemical substance/The level of expressed mRNA in the absence of chemical substance,yeast gene YPR108W,3.7
